Assay results as given in article PMC5403886, “A Novel Spiro-Heterocyclic Compound Identified by the Silkworm Infection Model Inhibits Transcription in Staphylococcus aureus” (Frontiers in Microbiology, 2017).

Biological target: T1, SigA (primary sigma factor of RNA polymerase) (Staphylococcus aureus, UniProt P0A0J0)
T1 construct: His-tagged recombinant SigA (sigA from S. aureus RN4220, pET28a)
Test: pull-down with His-tagged SigA on cobalt magnetic beads, HPLC of eluted compound
Assay type: binding

T1 sequence (P0A0J0 whole entry): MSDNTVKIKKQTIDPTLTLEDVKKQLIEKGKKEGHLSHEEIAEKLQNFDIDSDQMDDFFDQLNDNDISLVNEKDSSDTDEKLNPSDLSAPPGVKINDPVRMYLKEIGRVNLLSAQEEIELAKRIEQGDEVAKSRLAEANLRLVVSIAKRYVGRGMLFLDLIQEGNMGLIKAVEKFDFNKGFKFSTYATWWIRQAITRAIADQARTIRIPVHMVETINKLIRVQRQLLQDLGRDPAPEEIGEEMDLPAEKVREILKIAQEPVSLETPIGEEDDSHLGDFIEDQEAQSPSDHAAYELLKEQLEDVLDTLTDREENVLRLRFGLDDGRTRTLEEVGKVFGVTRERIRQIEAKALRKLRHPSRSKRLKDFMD

Structure (SMILES): CCCNC(=O)N1CCC2(CC1)Nc1cc(F)ccc1-n1cccc12 [GPI0363, 7-fluoro-N-propylspiro[5H-pyrrolo[1,2-a]quinoxaline-4,4′-piperidine]-1′-carboxamide]
- pull-down with His-tagged SigA on cobalt magnetic beads, HPLC of eluted compound: The peak of GPI0363 appeared when mixed with SigA whereas the peak was not observed when SigA was omitted
